Reference: US20210130401A1, “PEPTIDOMIMETIC INHIBITORS OF THE WDR5-MLL INTERACTION” (THE REGENTS OF THE UNIVERSITY OF MICHIGAN, priority 2017, published 2021)
Starred links: 1 amine or outer side, 2 acyl side, 3 side chain; linkers in the order of their positions; H or OH if unused. Positions of bridges follow the written chain, without caps; N, C: chain ends. Non-standard residues stand in square brackets, D forms with d. Residues, ends and D or L forms follow the SMILES beside them. *: point of attachment. Arg(Nω,Nω'-propylene) = N[C@@H](CCCNC1=NCCCN1)C(=O)O; dαMeDab = C[C@](CCN[*:3])(N[*:1])C(=O)[*:2]; dPhg(4-F) = N[C@@H](C(=O)O)c1ccc(F)cc1; dPhg(2-F) = N[C@@H](C(=O)O)c1ccccc1F; dPhg = N[C@@H](C(=O)O)c1ccccc1; Isobutyryl = CC(C)C(=O)*; Abu = CC[C@H](N)C(=O)O

Assays:
WDR5 = molecular target: T1, WDR5 (Homo sapiens, UniProt P61964); assay: fluorescence polarization (FP) based competitive binding assay to WDR5 protein
T1 construct: N-terminal His-tagged WDR5 protein (residues 24-334), named WDR5Δ23; made in house; host or cells: E. coli Rosetta 2 (DE3)
Method: The plates were incubated at room temperature on a shaker for 3h, and then the mP values were measured using the Tecan Infinite M-1000 plate reader (Tecan U.S., Research Triangle Park, N.C.).

[1] = test system: MOLM-13 leukemia cells carrying MLL-AF9 fusion; assay: cell viability assay (WST-8), MOLM-13; assay type: cell-based; settings: Homo sapiens, MOLM-13, 96 h, read-out: MOLM-13 IC50 (μM)

Row | SMILES | IC50 (WDR5) | Ki (WDR5) | IC50 [1]
1 | CC[C@@H]1NC(=O)[C@H](CCCNC2=NCCCN2)NC(=O)[C@](C)(NC(=O)C(C)C)CCNC(=O)[C@@H](c2ccc3ccccc3c2)NC1=O [Cpd. No. 98, N-((3R,6S,9S,12R)-6-ethyl-12-methyl-3-(naphthalen-2-yl)-2,5,8,11-tetraoxo-9-(3-((1,4,5,6-tetrahydropyrimidin-2-yl)amino)propyl)-1,4,7,10-tetraazacyclotetradecan-12-yl)isobutyramide] | 2.54 nM | < 1 nM | 0.039 µM
2 | CC[C@@H]1NC(=O)[C@H](CCCNC(=N)NC(C)=O)NC(=O)[C@](C)(NC(=O)C(C)C)CCNC(=O)[C@@H](c2ccccc2)NC1=O [Cpd. No. 91, N-((3R,6S,9S,12R)-9-(3-(3-acetylguanidino)propyl)-6-ethyl-12-methyl-2,5,8,11-tetraoxo-3-phenyl-1,4,7,10-tetraazacyclotetradecan-12-yl)isobutyramide] (Isobutyryl-[dαMeDab]R(Ac)[Abu][dPhg]; lactam 1-C) | 3.65 nM | < 1 nM | 0.47 µM
3 | CC(C)C(=O)N[C@]1(C)CCNC(=O)[C@@H](c2ccccc2)NC(=O)[C@H](C(C)C)NC(=O)[C@H](CCCNC(=N)N)NC1=O [Cpd. No. 89, N-((3R,6S,9S,12R)-9-(3-guanidinopropyl)-6-isopropyl-12-methyl-2,5,8,11-tetraoxo-3-phenyl-1,4,7,10-tetraazacyclotetradecan-12-yl)isobutyramide] (Isobutyryl-[dαMeDab]RV[dPhg]; lactam 1-C) | 1.83 nM | < 1 nM | > 10 µM
4 | CC[C@@H]1NC(=O)[C@H](CCCNC(=N)N)NC(=O)[C@](C)(NC(=O)C(C)C)CCNC(=O)[C@@H](c2ccc(OC)cc2)NC1=O [Cpd. No. 93, N-((3R,6S,9S,12R)-6-ethyl-9-(3-guanidinopropyl)-3-(4-methoxyphenyl)-12-methyl-2,5,8,11-tetraoxo-1,4,7,10-tetraazacyclotetradecan-12-yl)isobutyramide] | 1.79 nM | < 1 nM | 0.083 µM
5 | CC[C@@H]1NC(=O)[C@H](CCCNC(=N)N)NC(=O)[C@](C)(NC(=O)C(C)C)CCNC(=O)[C@@H](c2ccccc2F)NC1=O [Cpd. No. 79, N-((3R,6S,9S,12R)-6-ethyl-3-(2-fluorophenyl)-9-(3-guanidinopropyl)-12-methyl-2,5,8,11-tetraoxo-1,4,7,10-tetraazacyclotetradecan-12-yl)isobutyramide] (Isobutyryl-[dαMeDab]R[Abu][dPhg(2-F)]; lactam 1-C) | 0.32 nM | < 1 nM | 0.35 µM
6 | CC[C@@H]1NC(=O)[C@H](CCCNC2=NCCCN2)NC(=O)[C@](C)(NC(=O)C(C)C)CCNC(=O)[C@@H](c2ccccc2)NC1=O [Cpd. No. 92, N-((3R,6S,9S,12R)-6-ethyl-12-methyl-2,5,8,11-tetraoxo-3-phenyl-9-(3-((1,4,5,6-tetrahydropyrimidin-2-yl)amino)propyl)-1,4,7,10-tetraazacyclotetradecan-12-yl)isobutyramide] (Isobutyryl-[dαMeDab][Arg(Nω,Nω'-propylene)][Abu][dPhg]; lactam 1-C) | 1.86 nM | < 1 nM | 0.033 µM
7 | CC[C@@H]1NC(=O)[C@H](CCCNC(=N)N)NC(=O)[C@](C)(NC(=O)C(C)C)CCNC(=O)[C@@H](c2ccc(F)cc2)NC1=O [Cpd. No. 53, N-((3R,6S,9S,12R)-6-ethyl-3-(4-fluorophenyl)-9-(3-guanidinopropyl)-12-methyl-2,5,8,11-tetraoxo-1,4,7,10-tetraazacyclotetradecan-12-yl)isobutyramide] (Isobutyryl-[dαMeDab]R[Abu][dPhg(4-F)]; lactam 1-C) | 0.878 nM | < 1 nM | 0.38 µM
